# System: Vcap cells
# Experiment: Dihydrotestosterone (DHT) mediated XTT cell proliferation assay for screening AR antagonists using Vcap cells
# Format: cell-based
# Conditions: in the presence of 0.2 nM DHT, XTT readout on Day 10, IC50 curves from 8 concentrations
# Experimental: Dihydrotestosterone (DHT) Mediated XTT Cell Proliferation Assay for Screening AR Antagonists Using Vcap cells
# The Vcap cells (4×10^6 cells) were seeded in a T-75 flask containing DMEM with 15% FBS. After 72 hours, the media was removed; the cells were washed once and replaced with phenol red free DMEM containing 8% charcoal stripped serum. Then, the cells were starved in phenol red free DMEM with 8% charcoal stripped serum for 5 days. Following the starvation, the cells were harvested and seeded in 96 well plates (10×10^3 cells per well) in phenol red free DMEM with 8% charcoal stripped serum (Day 0). The cells were allowed to settle and on Day 4 they were treated with different concentrations of the compound (30 μM, 10 μM, 1 μM, 500 nM, 100 nM, 10 nM, 1 nM, 0.1 nM) in the presence of 0.2 nM DHT. DHT alone and a DMSO controls were also included. All treatments were done in triplicate. The drugs were replenished on Day 7 and the cells were allowed to grow for another 72 hours. On Day 10, the experiment was terminated by adding the XTT reagent (2,3-bis[2-methoxy-4-notro-5-sulfophenyl]-2H-tetrazolium-5-caboxyanilide inner salt) dissolved in Phenol red free DMEM without serum. The cells with the XTT reagents were incubated inside the CO2 incubator for 3-4 hours for color development; after which the readings were taken at […] using a spectramax Gemini plate reader.
# Data fitting: The IC50 curves for the 8 compound concentrations were calculated with GraphPad Prism software using the sigmoidal dose-response function. (Graphpad Software, San Diego, Calif., USA).
SMILES,"IC50 (Homo sapiens, 240 h)",IC50
"CNC(=O)c1ccc(N2C(=O)N(c3ccc(C#N)c(C(F)(F)F)c3)[C@@H]3CCC(=O)C[C@H]32)cc1F (racemic) [Example 81, Trans-4-(3-(4-cyano-3-(trifluoromethyl)phenyl)-2,6-dioxooctahydro-1H-benzo[d]imidazol-1-yl)-2-fluoro-N-methylbenzamide (±)]",702 nM,–
"CNC(=O)c1ccc(N2C(=O)N(c3ccc(C#N)c(C(F)(F)F)c3)[C@@H]3CCC(O)C[C@H]32)cc1F (mixture of isomers) [Example 82, Trans-4-(3-(4-cyano-3-(trifluoromethyl)phenyl)-6-hydroxy-2-oxooctahydro-1H-benzo[d]imidazol-1-yl)-2-fluoro-N-methylbenzamide (±)]",583 nM,–
"CNC(=O)c1ccc(N2C(=O)N(c3ccc(C#N)c(C(F)(F)F)c3)[C@@H]3CC=CC[C@H]32)cc1F (racemic) [Example 83, Trans-4-(3-(4-cyano-3-(trifluoromethyl)phenyl)-2-oxo-2,3,3a,4,7,7a-hexahydro-1H-benzo[c]imidazol-1-yl)-2-fluoro-N-methylbenzamide (±)]",148 nM,–
"CNC(=O)c1ccc(N2C(=O)N(c3ccc(C#N)c(C(F)(F)F)c3)[C@@H]3CCC=C[C@H]32)cc1F (racemic) [Example 84, trans-4-(3-(4-cyano-3-(trifluoromethyl)phenyl)-2-oxo-2,3,3a,4,5,7a-hexahydro-1H-benzo[d]imidazol-1-yl)-2-fluoro-N-methylbenzamide (±)]",161 nM,–
"CNC(=O)c1ccc(N2C(=O)N(c3ccc(C#N)c(C(F)(F)F)c3)[C@@H]3CC(OC)CC[C@H]32)cc1F (mixture of isomers) [Example 85, Trans-4-(3-(4-cyano-3-(trifluoromethyl)phenyl)-5-methoxy-2-oxooctahydro-1H-benzo[d]imidazol-1-yl)-2-fluoro-N-methylbenzamide (±)]",2620 nM,–
"CNC(=O)c1ccc(N2C(=O)N(c3ccc(C#N)c(C(F)(F)F)c3)[C@H]3C=CCC[C@@H]32)cc1F (racemic) [Example 86, trans-4-(3-(4-cyano-3-(trifluoromethyl)phenyl)-2-oxo-2,3,3a,6,7,7a-hexahydro-1H-benzo[c]imidazol-1-yl)-2-fluoro-N-methylbenzamide (±)]",43 nM,–
"CNC(=O)c1ccc(C2=C[C@@H]3[C@@H](CC2)N(c2ccc(C#N)c(C(F)(F)F)c2)C(=O)N3C)cc1F (racemic) [Example 88, Trans-4-(1-(4-cyano-3-(trifluoromethyl)phenyl)-3-methyl-2-oxo-2,3,3a,6,7,7a-hexahydro-1H-benzo[d]imidazol-5-yl)-2-fluoro-N-methylbenzamide (±)]",218 nM,–
"CNC(=O)c1ccc(C2=C[C@H]3[C@@H](CC2)N(c2ccc(C#N)c(C(F)(F)F)c2)C(=O)N3C)cc1F (racemic) [Example 89, Cis-4-(1-(4-cyano-3-(trifluoromethyl)phenyl)-3-methyl-2-oxo-2,3,3a,6,7,7a-hexahydro-1H-benzo[d]imidazol-5-yl)-2-fluoro-N-methylbenzamide (±)]",1000 nM,–
"CN1C(=O)N(c2ccc(C#N)c(C(F)(F)F)c2)[C@@H]2CCC(c3ccccc3)=C[C@H]21 (racemic) [Example 91, Trans-4-3-methyl-2-oxo-5-phenyl-2,3,3a,6,7,7a-hexahydro-1H-benzo[d]imidazol-1-yl)-2-(trifluoromethyl)benzonitrile (±)]",323 nM,–
"CNC(=O)c1ccc(N2C(=O)N(c3ccc(C#N)c(C(F)(F)F)c3)[C@@H]3CCCC[C@H]32)cc1F (relative stereo) [Example 1a, Trans-4-{3-[4-cyano-3-(trifluoromethyl)phenyl]-2-oxo-octahydro-1H-1,3-benzodiazol-1-yl}-2-fluoro-N-Methylbenzamide (+)]",–,> 10000 nM
"CNC(=O)c1ccc(N2C(=O)N(c3ccc(C#N)c(C(F)(F)F)c3)[C@@H]3CCCC[C@H]32)cc1F (relative stereo) [Example 1b, Trans-4-{3-[4-cyano-3-(trifluoromethyl)phenyl]-2-oxo-octahydro-1H-1,3-benzodiazol-1-yl}-2-fluoro-N-Methylbenzamide (−)]",–,90.5 nM
"N#Cc1ccc(N2C(=O)N(c3ccc(C#N)c(C(F)(F)F)c3)[C@@H]3CCCC[C@H]32)cc1C(F)(F)F (relative stereo) [Example 2a, Trans-4,4′-(2-oxohexahydro-1H-benzo[d]imidazole-1,3(2H)-diyl)bis(2-(trifluoromethyl)benzonitrile) (−)]",–,231 nM
"N#Cc1ccc(N2C(=O)N(c3ccc(C#N)c(C(F)(F)F)c3)[C@@H]3CCCC[C@H]32)cc1C(F)(F)F (relative stereo) [Example 2b, Trans-4,4′-(2-oxohexahydro-1H-benzo[d]imidazole-1,3(2H)-diyl)bis(2-(trifluoromethyl)benzonitrile) (+)]",–,> 10000 nM
"N#Cc1ccc(N2C(=O)N(c3ccccc3)[C@@H]3CCCC[C@H]32)cc1C(F)(F)F (relative stereo) [Example 5a, Trans-4-(2-oxo-3-phenyloctahydro-1H-benzo[d]imidazol-1-yl)-2-(trifluoromethyl)benzonitrile (+)]",–,1760 nM
"N#Cc1ccc(N2C(=O)N(c3ccccc3)[C@@H]3CCCC[C@H]32)cc1C(F)(F)F (relative stereo) [Example 5b, Trans-4-(2-oxo-3-phenyloctahydro-1H-benzo[d]imidazol-1-yl)-2-(trifluoromethyl)benzonitrile (−)]",–,1050 nM
"N#Cc1ccc(N2C(=O)N(c3ccnc(F)c3)[C@@H]3CCCC[C@H]32)cc1C(F)(F)F (relative stereo) [Example 10a, Trans-4-(3-(2-fluoropyridin-4-yl)-2-oxooctahydro-1H-benzo[d]imidazol-1-yl)-2-(trifluoromethyl)benzonitrile (+)]",–,2550 nM
"N#Cc1ccc(N2C(=O)N(c3ccnc(F)c3)[C@@H]3CCCC[C@H]32)cc1C(F)(F)F (relative stereo) [Example 10b, Trans-4-(3-(2-fluoropyridin-4-yl)-2-oxooctahydro-1H-benzo[d]imidazol-1-yl)-2-(trifluoromethyl)benzonitrile (−)]",–,280 nM
"CNC(=O)c1ccc(N2C(=O)N(c3ccc(C#N)c(C(F)(F)F)c3)[C@@H]3COCC[C@H]32)cc1F (relative stereo) [Example 71a, Trans-4-{3-[4-Cyano-3-(trifluoromethyl)phenyl]-2-oxo-octahydropyrano[3,4-d]imidazolidin-1-yl}-2-fluoro-N-methylbenzamide (+)]",–,> 10000 nM
"CNC(=O)c1ccc(N2C(=O)N(c3ccc(C#N)c(C(F)(F)F)c3)[C@@H]3COCC[C@H]32)cc1F (relative stereo) [Example 71b, Trans-4-{3-[4-Cyano-3-(trifluoromethyl)phenyl]-2-oxo-octahydropyrano[3,4-d]imidazolidin-1-yl}-2-fluoro-N-methylbenzamide (−)]",–,379 nM
"CNC(=O)c1ccc(N2C(=O)N(c3ccc(C#N)c(C(F)(F)F)c3)[C@@H]3CCCCC[C@H]32)cc1F (relative stereo) [Example 80a, Trans-4-(3-(4-cyano-3-(trifluoromethyl)phenyl)-2-oxooctahydrocyclohepta[d]imidazol-1(2H)-yl)-2-fluoro-N-methylbenzamide (−)]",–,93.7 nM
"CNC(=O)c1ccc(N2C(=O)N(c3ccc(C#N)c(C(F)(F)F)c3)[C@@H]3CCCCC[C@H]32)cc1F (relative stereo) [Example 80b, Trans-4-(3-(4-cyano-3-(trifluoromethyl)phenyl)-2-oxooctahydrocyclohepta[d]imidazol-1(2H)-yl)-2-fluoro-N-methylbenzamide (+)]",–,2180 nM
CNC(=O)c1ccc(N2C(=O)N(c3ccc(C#N)c(C(F)(F)F)c3)[C@@H]3CC=CC[C@H]32)cc1F (relative stereo) [Example 83a],–,> 10000 nM
CNC(=O)c1ccc(N2C(=O)N(c3ccc(C#N)c(C(F)(F)F)c3)[C@@H]3CC=CC[C@H]32)cc1F (relative stereo) [Example 83b],–,31.9 nM
"CNC(=O)c1ccc(N2C(=O)N(c3ccc(C#N)c(C(F)(F)F)c3)C3CCC(O)CC32)cc1F (single isomer, unassigned) [Example 82a, Trans-4-(3-(4-cyano-3-(trifluoromethyl)phenyl)-6-hydroxy-2-oxooctahydro-1H-benzo[d]imidazol-1-yl)-2-fluoro-N-methylbenzamide (+)]",–,> 10000 nM
"CNC(=O)c1ccc(N2C(=O)N(c3ccc(C#N)c(C(F)(F)F)c3)C3CCC(O)CC32)cc1F (single isomer, unassigned) [Example 82b, Trans-4-(3-(4-cyano-3-(trifluoromethyl)phenyl)-6-hydroxy-2-oxooctahydro-1H-benzo[d]imidazol-1-yl)-2-fluoro-N-methylbenzamide (−)]",–,312 nM
"COCCONC(=O)c1ccc(N2C(=O)N(c3ccc(C#N)c(C(F)(F)F)c3)[C@H]3CCCC[C@@H]32)cc1F [Example 29, 4-((3aS,7aS)-3-(4-Cyano-3-(trifluoromethyl)phenyl)-2-oxooctahydro-1H-benzo[d]imidazol-1-yl)-2-fluoro-N-(2-methoxyethoxy)benzamide]",176 nM,–

# — patent US20140329858A1, “Cyclic Urea Derivatives As Androgen Receptor Antagonists” (priority 2011, published 2014)
